Experiments:
[1] = system: MDA-MB-468 breast cancer cells; assay: Inhibitory activity against tumor cells, CellTiter-Glo: MDA-MB-468; type: cell-based; conditions: Homo sapiens, 120 h, MDA-MB-468, 5 days treatment
Description: (§1) MCF7 (ATCC #HTB-22) and T47D (ATCC #HTB-133) breast cancer cells and PANC-1 (ATCC #CRL-1469) pancreatic cancer cells were purchased from ATCC. MDA-MB-231 (Cobioer #CBP60382), HCC1806 (Cobioer #CBP60373), and MDA-MB-468 (Cobioer #CBP60387) breast cancer cells, HCT-116 (Cobioer #CBP60028) colorectal cancer cells, and OCI-AML-3 (Cobioer #CBP60817) and MV-4-11 (Cobioer #CBP60522) leukemia cells were purchased from Nanjing Cobioer Biosciences Co., Ltd.
(§2) OCI-AML-3 was cultured in RPMI 1640 medium with 20% FBS; HCC1806 and T47D were cultured in RPMI 1640 medium with 10% FBS; MCF7, MDA-MB-231, MDA-MB-468, and PANC-1 were cultured in DMEM medium with 10% FBS; MV-4-11 was cultured in IMDM medium with 20% FBS; HCT-116 was cultured in MC′5A medium with 10% FBS.
(§3) Palbociclib-resistant cells were constructed on MCF7 parent cells, designated MCF7 Palbo-R, and the culture conditions were consistent with those of the parent cells. All tumor cells were cultured in a cell incubator at 37° C. with 5% CO2. The cells were seeded at corresponding cell densities (600 cells/well for MDA-MB-231; 500 cells/well for MDA-MB-468, PANC-1, and HCT-116; 200 cells/well for MCF7 and HCC1806; 800 cells/well for MCF7 Palbo-R; 3000 cells/well for OCI-AML-3 and MV-4-11) in 384-well plates and cultured overnight in the incubator. On the second day, the cells were treated with compounds. The maximum compound concentration was 10 μM and was 3-fold diluted to obtain 9 concentrations, each tested in duplicate, and the final concentration of DMSO was 0.1%. The cells continued to be cultured in the incubator, with MDA-MB-231, PANC-1, MDA-MB-468, OCI-AML-3, and MV-4-11 being treated with drugs for 5 days and HCC1806, MCF7, MCF7 Palbo-R, and HCT116 being treated with drugs for 7 days. Cell viability was tested using the Celltiter Glo assay kit (Promega), and the testing method was consistent with the operational method provided by the kit. Readings were taken using an Envision multimode microplate reader. Data were processed using GraphPad Prism 8, and IC50 was calculated. […]

MV-4-11 leukemia cells = assay: Inhibitory activity against tumor cells, CellTiter-Glo: MV-4-11; type: cell-based; conditions: Homo sapiens, MV4-11, 120 h, MV-4-11, 5 days treatment
Description: as §1, §2, §3

[2] = system: PANC-1 pancreatic cancer cells; assay: Inhibitory activity against tumor cells, CellTiter-Glo: PANC-1; type: cell-based; conditions: Homo sapiens, 120 h, PANC-1, 5 days treatment
Description: as §1, §2, §3

[3] = system: MDA-MB-231 breast cancer cells; assay: Inhibitory activity against tumor cells, CellTiter-Glo: MDA-MB-231; type: cell-based; conditions: Homo sapiens, 120 h, MDA-MB-231, 5 days treatment
Description: as §1, §2, §3

CDK12/CyclinK = CDK12/CyclinK (Homo sapiens, UniProt Q9NYV4); assay: ADP-Glo kinase assay, CDK12; type: biochemical; conditions: 150 nM CDK12/CyclinK, 20 μM ATP (Km), pS7-CTD peptide, 120 min; read-out: inhibitory activity (IC50, nM) CDK12
Sequence of CDK12/CyclinK (Q9NYV4 whole entry, species assumed): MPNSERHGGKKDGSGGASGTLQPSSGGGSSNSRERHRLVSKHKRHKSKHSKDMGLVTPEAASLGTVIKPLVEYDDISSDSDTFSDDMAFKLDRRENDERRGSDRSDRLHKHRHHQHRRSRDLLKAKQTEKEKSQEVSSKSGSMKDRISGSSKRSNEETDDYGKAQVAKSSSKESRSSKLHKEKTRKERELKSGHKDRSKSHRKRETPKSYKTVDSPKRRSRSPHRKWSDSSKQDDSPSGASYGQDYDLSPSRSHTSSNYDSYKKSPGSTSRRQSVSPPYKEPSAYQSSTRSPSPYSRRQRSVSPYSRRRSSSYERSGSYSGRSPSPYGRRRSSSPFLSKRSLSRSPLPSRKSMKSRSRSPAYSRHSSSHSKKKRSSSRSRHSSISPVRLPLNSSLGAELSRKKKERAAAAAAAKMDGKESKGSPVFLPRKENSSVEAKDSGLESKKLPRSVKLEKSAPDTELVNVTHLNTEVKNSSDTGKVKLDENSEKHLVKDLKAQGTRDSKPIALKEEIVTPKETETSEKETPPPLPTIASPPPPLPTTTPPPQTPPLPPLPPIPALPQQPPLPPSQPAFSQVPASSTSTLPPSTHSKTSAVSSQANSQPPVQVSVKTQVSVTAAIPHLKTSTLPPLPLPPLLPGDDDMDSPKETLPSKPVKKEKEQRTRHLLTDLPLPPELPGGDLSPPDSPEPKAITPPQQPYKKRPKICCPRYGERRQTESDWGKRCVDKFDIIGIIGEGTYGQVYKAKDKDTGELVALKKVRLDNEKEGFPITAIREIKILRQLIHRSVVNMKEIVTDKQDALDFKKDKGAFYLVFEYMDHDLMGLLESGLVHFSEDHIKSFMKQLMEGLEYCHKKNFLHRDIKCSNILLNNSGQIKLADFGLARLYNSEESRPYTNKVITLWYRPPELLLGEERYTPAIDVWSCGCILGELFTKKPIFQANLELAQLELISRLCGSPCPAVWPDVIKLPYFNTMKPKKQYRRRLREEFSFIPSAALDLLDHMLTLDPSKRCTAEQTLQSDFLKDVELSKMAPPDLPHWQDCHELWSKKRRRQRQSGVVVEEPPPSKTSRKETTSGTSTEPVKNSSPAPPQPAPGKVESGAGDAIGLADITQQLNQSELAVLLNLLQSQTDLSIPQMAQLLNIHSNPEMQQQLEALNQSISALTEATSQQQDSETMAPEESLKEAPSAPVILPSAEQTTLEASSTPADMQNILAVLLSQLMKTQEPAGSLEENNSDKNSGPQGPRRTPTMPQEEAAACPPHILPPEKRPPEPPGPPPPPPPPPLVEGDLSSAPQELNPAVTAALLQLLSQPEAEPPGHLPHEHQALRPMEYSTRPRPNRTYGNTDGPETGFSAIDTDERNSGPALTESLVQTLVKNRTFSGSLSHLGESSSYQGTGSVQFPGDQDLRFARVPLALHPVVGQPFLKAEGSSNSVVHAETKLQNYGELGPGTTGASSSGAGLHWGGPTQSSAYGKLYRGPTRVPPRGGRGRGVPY
Sequence of CDK12/CyclinK (O75909 whole entry partner, species assumed): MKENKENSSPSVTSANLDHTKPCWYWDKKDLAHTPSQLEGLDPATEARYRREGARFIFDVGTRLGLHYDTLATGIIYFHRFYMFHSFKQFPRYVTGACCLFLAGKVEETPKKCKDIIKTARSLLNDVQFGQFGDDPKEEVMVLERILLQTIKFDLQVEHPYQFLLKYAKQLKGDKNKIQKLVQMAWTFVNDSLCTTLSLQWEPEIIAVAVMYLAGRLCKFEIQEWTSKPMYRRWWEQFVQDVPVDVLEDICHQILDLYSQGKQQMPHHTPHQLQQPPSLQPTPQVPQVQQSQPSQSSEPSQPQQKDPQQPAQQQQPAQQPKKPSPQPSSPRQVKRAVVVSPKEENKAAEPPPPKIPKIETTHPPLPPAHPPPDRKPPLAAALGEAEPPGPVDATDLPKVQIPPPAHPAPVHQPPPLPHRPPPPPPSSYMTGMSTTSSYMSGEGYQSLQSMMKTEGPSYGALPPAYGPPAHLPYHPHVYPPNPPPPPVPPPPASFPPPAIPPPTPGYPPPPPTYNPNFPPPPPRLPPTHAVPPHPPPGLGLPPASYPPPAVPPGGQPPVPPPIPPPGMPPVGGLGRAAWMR
Description: (§4) The ADP-Glo kinase assay was used for testing the activity of CDKs. The compounds were diluted in 384-well plates using Echo. The starting concentration was 10 μM and was 3-fold diluted to obtain 10 concentration points, each tested in duplicate, and the final concentration of DMSO in the assay system was 1%. CDK solutions (the final concentrations were 16.5 nM CDK1/CyclinB, 1 nM CDK2/CyclinE1, 16.3 nM CDK4/CyclinD1, 11.5 nM CDK5/p25, 15.7 nM CDK6/CyclinD3, 80 nM CDK7/Cyclin H/MAT1, 15.3 nM CDK9/Cyclin T1, and 150 nM CDK12/CyclinK) prepared in assay buffer were added at 2.5 μL, and the enzymes and compounds were pre-incubated at room temperature for 10 min. ATP (the concentration was Km) & substrate solutions (20 μM ATP & 0.1 mg/mL Histone H1 Protein for CDK1/CyclinB, 15 μM ATP & 0.1 mg/mL Histone H1 Protein for CDK2/CyclinE1, 200 μM ATP & 0.2 mg/mL DYRKtide peptide for CDK4/CyclinD1, 10 μM ATP & 0.1 mg/mL Histone H1 Protein for CDK5/p25, 200 μM ATP & 0.1 mg/mL Histone H1 Protein for CDK6/CyclinD3, 70 μM ATP & 0.2 mg/mL MBP for CDK7/Cyclin H/MAT1, 60 μM ATP & 0.2 mg/mL PDKtide for CDK9/Cyclin T1, and 20 μM ATP & 80 μM pS7-CTD peptide for CDK12/CyclinK) prepared in assay buffer were added at 2.5 μL. […] Readings were taken using an Envision multimode microplate reader. Data were processed using GraphPad Prism 8, and IC50 was calculated. […]

MCF7 breast cancer cells = assay: Inhibitory activity against tumor cells, CellTiter-Glo: MCF7; type: cell-based; conditions: Homo sapiens, 168 h, MCF7, 7 days treatment
Description: as §1, §2, §3

CDK5/p25 = CDK5/p25 (Homo sapiens, UniProt Q00535); assay: ADP-Glo kinase assay, CDK5; type: biochemical; conditions: 11.5 nM CDK5/p25, 10 μM ATP (Km), Histone H1, 60 min; read-out: inhibitory activity (IC50, nM) CDK5
Sequence of CDK5/p25 (Q00535 whole entry, species assumed): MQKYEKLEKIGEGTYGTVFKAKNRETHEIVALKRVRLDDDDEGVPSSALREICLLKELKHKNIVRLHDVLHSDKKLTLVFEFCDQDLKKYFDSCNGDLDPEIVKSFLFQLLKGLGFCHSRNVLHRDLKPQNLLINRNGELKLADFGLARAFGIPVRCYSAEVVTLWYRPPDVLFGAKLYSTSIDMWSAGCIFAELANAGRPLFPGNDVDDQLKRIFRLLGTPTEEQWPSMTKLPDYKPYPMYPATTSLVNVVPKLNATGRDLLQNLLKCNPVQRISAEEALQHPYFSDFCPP
Sequence of CDK5/p25 (Q15078 99-307 partner limits assumed, species assumed): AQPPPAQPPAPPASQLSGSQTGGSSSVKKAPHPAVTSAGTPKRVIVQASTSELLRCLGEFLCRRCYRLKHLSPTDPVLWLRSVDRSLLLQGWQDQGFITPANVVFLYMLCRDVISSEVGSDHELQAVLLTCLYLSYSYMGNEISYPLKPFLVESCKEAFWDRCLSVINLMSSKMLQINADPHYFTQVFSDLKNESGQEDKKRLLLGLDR
Description: as §4

various tumor cell lines = assay: Inhibitory activity against tumor cells, summary over the panel of Tables 4 and 5; type: cell-based; conditions: summary of Tables 4 and 5
Description: as §1, §2
Palbociclib-resistant cells were constructed on MCF7 parent cells, designated MCF7 Palbo-R, and the culture conditions were consistent with those of the parent cells. All tumor cells were cultured in a cell incubator at 37° C. with 5% CO2. The cells were seeded at corresponding cell densities (600 cells/well for MDA-MB-231; 500 cells/well for MDA-MB-468, PANC-1, and HCT-116; 200 cells/well for MCF7 and HCC1806; 800 cells/well for MCF7 Palbo-R; 3000 cells/well for OCI-AML-3 and MV-4-11) in 384-well plates and cultured overnight in the incubator. On the second day, the cells were treated with compounds. The maximum compound concentration was 10 μM and was 3-fold diluted to obtain 9 concentrations, each tested in duplicate, and the final concentration of DMSO was 0.1%. The cells continued to be cultured in the incubator, with MDA-MB-231, PANC-1, MDA-MB-468, OCI-AML-3, and MV-4-11 being treated with drugs for 5 days and HCC1806, MCF7, MCF7 Palbo-R, and HCT116 being treated with drugs for 7 days. Cell viability was tested using the Celltiter Glo assay kit (Promega), and the testing method was consistent with the operational method provided by the kit. Readings were taken using an Envision multimode microplate reader. Data were processed using GraphPad Prism 8, and IC50 was calculated.
Y=Bottom+(Top−Bottom)/(1+10^((Log IC50−X)×HillSlope)). Calculation formula: • X: the logarithm of the compound concentration; Y: % inhibition.

CDK6/CyclinD3 = CDK6/CyclinD3 (Homo sapiens, UniProt Q00534); assay: ADP-Glo kinase assay, CDK6; type: biochemical; conditions: 15.7 nM CDK6/CyclinD3, 200 μM ATP (Km), Histone H1, 60 min; read-out: inhibitory activity (IC50, nM) CDK 6
Sequence of CDK6/CyclinD3 (Q00534 whole entry, species assumed): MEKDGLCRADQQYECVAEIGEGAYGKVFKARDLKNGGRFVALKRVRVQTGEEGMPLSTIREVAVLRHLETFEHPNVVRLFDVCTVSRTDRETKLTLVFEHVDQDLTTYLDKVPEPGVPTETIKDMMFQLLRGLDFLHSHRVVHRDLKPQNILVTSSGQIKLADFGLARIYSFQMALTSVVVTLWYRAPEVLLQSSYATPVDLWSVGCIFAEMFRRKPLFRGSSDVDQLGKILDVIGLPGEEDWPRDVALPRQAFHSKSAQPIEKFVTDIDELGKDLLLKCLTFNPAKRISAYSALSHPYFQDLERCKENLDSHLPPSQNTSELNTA
Sequence of CDK6/CyclinD3 (P30281 whole entry partner, species assumed): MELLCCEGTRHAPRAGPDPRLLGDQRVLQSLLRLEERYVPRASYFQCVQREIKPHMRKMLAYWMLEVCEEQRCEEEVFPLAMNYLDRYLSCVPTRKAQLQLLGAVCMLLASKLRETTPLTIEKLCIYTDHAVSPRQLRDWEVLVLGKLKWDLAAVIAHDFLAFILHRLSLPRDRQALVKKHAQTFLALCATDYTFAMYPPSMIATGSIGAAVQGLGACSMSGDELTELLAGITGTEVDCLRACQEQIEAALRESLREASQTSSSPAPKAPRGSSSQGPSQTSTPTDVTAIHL
Description: as §4

CDK4/CyclinD1 = CDK4/CyclinD1 (Homo sapiens, UniProt P11802); assay: ADP-Glo kinase assay, CDK4; type: biochemical; conditions: 16.3 nM CDK4/CyclinD1, 200 μM ATP (Km), DYRKtide peptide, 120 min; read-out: inhibitory activity (IC50, nM) CDK4
Sequence of CDK4/CyclinD1 (P11802 whole entry, species assumed): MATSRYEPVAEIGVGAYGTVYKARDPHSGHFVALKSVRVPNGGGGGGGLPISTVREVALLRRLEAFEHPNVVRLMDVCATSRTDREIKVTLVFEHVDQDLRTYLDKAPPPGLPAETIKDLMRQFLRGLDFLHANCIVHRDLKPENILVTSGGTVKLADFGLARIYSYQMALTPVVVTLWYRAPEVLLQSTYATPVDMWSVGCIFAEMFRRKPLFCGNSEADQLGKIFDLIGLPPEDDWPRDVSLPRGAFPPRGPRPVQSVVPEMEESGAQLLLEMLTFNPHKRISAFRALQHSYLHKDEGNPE
Sequence of CDK4/CyclinD1 (P24385 whole entry partner, species assumed): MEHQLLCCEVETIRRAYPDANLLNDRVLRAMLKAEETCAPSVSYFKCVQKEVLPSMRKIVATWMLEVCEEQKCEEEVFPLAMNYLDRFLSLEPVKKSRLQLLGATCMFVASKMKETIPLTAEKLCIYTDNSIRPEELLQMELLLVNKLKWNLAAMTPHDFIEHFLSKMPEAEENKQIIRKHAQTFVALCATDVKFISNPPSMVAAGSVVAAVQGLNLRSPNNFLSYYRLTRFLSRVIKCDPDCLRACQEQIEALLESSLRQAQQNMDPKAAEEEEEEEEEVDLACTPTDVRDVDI
Description: as §4

Work on `C[C@@H]1Cc2cnc(NCc3ccn(C)n3)nc2CN1C(=O)N[C@H](CN(C)C)c1ccccc1` [Example 2, (R)—N—((S)-2-(Dimethylamino)-1-phenylethyl)-6-methyl-2-(((1-methyl-TH-pyrazol-3-yl)methyl)amino)-5,8-dihydropyrido[3,4-d]pyrimidine-7(6H)-carboxamide] yielded an IC50 [1] of 0.03 µM, an IC50 (MV-4-11 leukemia cells) of 0.0182 µM and an IC50 [2] of 0.0459 µM. For the same compound, the IC50 [3] was 0.0254 µM, the IC50 (CDK12/CyclinK) was over 10000 nM and the IC50 (MCF7 breast cancer cells) was 0.0146 µM. The IC50 (CDK5/p25) was 6310 nM, the “inhibitory activity against the various tumor cell lines (in words)” value (various tumor cell lines) was “high inhibitory activity” and the IC50 (CDK6/CyclinD3) was over 10000 nM. The IC50 (CDK4/CyclinD1) was over 10000 nM.
For `C[C@H](Nc1ncc2c(n1)CN(C(=O)N[C@H](CN(C)C)c1ccccc1)[C@H](C)C2)c1ccccn1` [Example 6, (R)—N—((S)-2-(Dimethylamino)-1-phenylethyl)-6-methyl-2-(((S)-1-(pyridin-2-yl)ethyl)amino)-5,8-dihydropyrido[3,4-d]pyrimidine-7(6H)-carboxamide], the IC50 [1] was 0.0213 µM, the IC50 (MV-4-11 leukemia cells) was 0.0191 µM and the IC50 [2] was 0.0177 µM. The IC50 [3] was 0.0232 µM, the IC50 (CDK12/CyclinK) was over 10000 nM and the IC50 (MCF7 breast cancer cells) was 0.0118 µM. The IC50 (CDK5/p25) was 6420 nM, the “inhibitory activity against the various tumor cell lines (in words)” value (various tumor cell lines) was “high inhibitory activity” and the IC50 (CDK6/CyclinD3) was over 10000 nM. The IC50 (CDK4/CyclinD1) was over 10000 nM.

Reference: US20260176266A1, “PIPERIDINOPYRIMIDINE DERIVATIVE, PREPARATION METHOD THEREFOR AND USE THEREOF IN MEDICINE” (TUOJIE BIOTECH (SHANGHAI) CO., LTD., priority 2022, published 2026)
